From patent US5883091A, “1,3,4-oxadiazine derivatives having a pesticide effect” (priority 1994, dated 1999) come the findings set out here.

In one data set the test system is two-spotted spider mite (Tetranychus urticae). Nature of the data set: Tetranychus-Test (OP resistant/spray treatment). The format is in vivo. Particulars: Tetranychus urticae, 120 h; after 5 days; active compound concentration 0.001%; OP resistant; spray treatment of infested bean plants; 100% = all spider mites destroyed, 0% = none destroyed; read-out: destruction of spider mites (action in %). How it is done: Tetranychus-Test (OP resistant/spray treatment)
Solvent: 3 parts by weight of dimethylformamide
Emulsifier: 1 part by weight of alkylaryl polyglycol ether
To prepare a suitable preparation of active compound, 1 part by weight of active compound is mixed with the stated amount of solvent and the stated amount of emulsifier, and the concentrate is diluted with water to the desired concentrations.
Bean plants (Phaseolus vulgaris) which are severely infested with all stages of the two-spotted spider mite (Teiranychus urticae) are sprayed with a preparation of active compound of the desired concentration.
After the desired time, the action is determined in %. 100% means that all spider mites have been destroyed; 0% means that no spider mites have been destroyed.
Consider `Fc1cccc(F)c1C1=NN(c2ccc(-c3ccc(OC(F)(F)F)cc3)cc2)CCO1` [Example 3, 4-[4-(4-trifluoromethoxyphenyl)phenyl]-2-(2,6-difluorophenyl)-4H-5,6-dihydro-1,3,4-oxadiazine], for which the mortality at 0.001 % amounted to 95%. With `CC(C)(C)c1ccc(CN2CCOC(c3c(F)cccc3F)=N2)cc1` [Example 4, 2-(2,6-difluorophenyl)-4-(4-tert-butylbenzyl)-4H-5,6-dihydro-1,3,4-oxadiazine], the mortality at 0.001 % was 98%.

The data set is the same for the next values; noted with them: after 5 days; active compound concentration 0.001%; OP resistant; spray treatment of infested bean plants; 100% = all spider mites destroyed, 0% = none destroyed.
Take `FCCN1CCOC(c2ccc(Br)cc2)=N1` [A, 2-(4-Bromophenyl)-4-(2-fluoroeth-1-yl)-4H-5,6-dihydro-1,3,4-oxadiazine, reference compound]: the “destruction of spider mites (action in %)” value is given as “no action”.

Test system in the next data set: not listed separately
Nature of the data set: log p (pH 2), physical constants. The format is physicochemical.
Details: not given
For `Fc1cccc(F)c1C1=NN(Cc2ccc(-c3ccc(OC(F)(F)F)cc3)cc2)CCO1` [Example 29], the logD came out at 5.15. The same measure, in the same setting: for `Clc1ccc(Cl)c(C2=NN(Cc3cccc(Oc4ccccc4)c3)CCO2)c1` [Example 25] the value was 5.57. With `Fc1cccc(F)c1C1=NN(Cc2cc(Cl)c(OCc3ccc(Cl)cc3)c(Cl)c2)CCO1` [Example 21], the logD was determined as 5.67. Take `Clc1cc(Cl)cc(C2=NN(Cc3ccc(Br)cc3)CCO2)c1` [Example 34]: the logD turned out to be 6.47. In turn, `Clc1ccc(COc2c(Cl)cc(CN3CCOC(c4cccs4)=N3)cc2Cl)cc1` [Example 24] gave a logD of 5.95. Consider `FC(F)(F)c1cccc(C2=NN(Cc3ccc(Oc4ccc(C(F)(F)F)cc4Cl)cc3)CCO2)c1` [Example 31], for which the logD turned out to be 6.43. In turn, `FC(F)(F)c1ccc(Oc2ccc(CN3CCOC(c4cc(Cl)ccc4Cl)=N3)cc2)c(Cl)c1` [Example 19] came in with a logD of 6.35. `Fc1cccc(C2=NN(Cc3ccc(Br)cc3)CCO2)c1` [Example 35]: the logD worked out at 4.8.

Molecule `Brc1ccc(CN2CCOC(c3cccs3)=N2)cc1` [Example 20] had a logD of 4.26.

For the molecule `Fc1ccc(CN2CCOC(c3cc(Cl)ccc3Cl)=N2)cc1Oc1ccccc1` [Example 33], the logD was 5.41.

Take `FC(F)(F)c1ccc(C2=NN(Cc3ccc(Oc4ccc(C(F)(F)F)cc4Cl)cc3)CCO2)cc1` [Example 26]: the pH-dependent lipophilicity (logD) was determined as 6.44.

For `Fc1cccc(C2=NN(Cc3ccc(-c4ccc(OC(F)(F)F)cc4)cc3)CCO2)c1` [Example 36], the logD amounted to 5.87. On the same count and under the same terms, for `Fc1cccc(F)c1C1=NN(Cc2ccccc2)CCO1` [Example 38] the value was 3.38; for `Fc1ccc(CN2CCOC(c3ccc(Cl)c(Cl)c3)=N2)cc1Oc1ccccc1` [Example 27], 6.13; for `Fc1cccc(F)c1C1=NN(Cc2ccc(Br)cc2)CCO1` [Example 22], 4.03. On the same count and under the same terms, for `Fc1ccc(C2=NN(Cc3ccc(Br)cc3)CCO2)cc1` [Example 32] the value was 4.73; for `FC(F)(F)Oc1ccc(-c2ccc(CN3CCOC(c4cc(Cl)cc(Cl)c4)=N3)cc2)cc1` [Example 37], 7.36; for `Fc1cccc(F)c1C1=NN(Cc2ccc(-c3ccccc3)cc2)CCO1` [Example 30], 4.49. `Clc1ccc(C2=NN(Cc3ccc(Oc4ccccc4)cc3)CCO2)c(Cl)c1` [Example 18] displayed a logD of 5.61. For `FC(F)(F)Oc1ccc(-c2ccc(CN3CCOC(c4cccs4)=N3)cc2)cc1` [Example 23], the logD is 5.41.

Broadly, the logD is lipophilicity at a set pH, counting ionised and neutral species. High values mean higher lipophilicity, low ones lower lipophilicity.
